# According to patent US5583142A, “Analgesic and nootropic drugs” (priority 1992, dated 1996):
# Where “and” joins values, the source holds several entries; their conditions need not be identical. Identical values can stand only once. Like-named read-outs stand apart in the source and are kept apart here.
# Tests used:
# [1] = mouse rota-rod test (16 r.p.m.)
# Description: All products tested to detect their antinociceptive activity had been previously tested by the rota-rod test to determine their maximum utilizable dose in analgesic tests. In fact, by this test it is possible to determine the highest dose of drug not impairing the normal performance of animals in a test that simultaneously evaluates motor coordination, equilibrium, resistance to fatigue, and muscle strength. This test is meant to evaluate the capability of mice to stay balanced on a rotating rod [cf. Vaught et al., Neuropharmacology, 24 (3) 211-216 (1985)].
# The calculated doses were those used in the two analgesic tests on mice.
# [2] = assay type: in vivo, mouse
# Experimental: (§1) The analgesic action was detected in mouse, rat, guinea pig and dog. The mouse was subjected to hot plate and writhing tests; the rat to tail-flick and paw-pressure tests; the guinea pig to paw-pressure test only; the dog to the test described by Vainio et al. [J. Vet. Pharmacol. Ther., 12, 225-231 (1989)] using an electric stimulation. Consequently, the claimed compounds were tested with pain being induced by stimuli of different nature: thermal (hot plate and tail flick), chemical (writhing by acetic acid), mechanical (paw pressure) and electrical (cutaneous stimulation).
# (§2) Potency, efficacy and toxicity of SM21, PG9 and SM32 in comparison with
# (§3) four principal reference analgesic drugs tested in mouse. As analgesic
# [3] = in vivo; conditions: mouse, sc
# Description: as §2, §3
# [4] = mouse acetic acid writhing test; assay type: in vivo
# Experimental: as §1
# The claimed molecules, chosen as examples, were also assayed in mice by the writhing test (Table 4). The test is meant to evaluate the products capability to prevent mice writhes ensuing abdominal pains caused by i.p. injection of a 0.6% aqueous solution of acetic acid.
# Acetic acid solution = 0.6% v/v.
# [5] = rat paw-pressure test; assay type: in vivo; conditions: for paw-pressure: 20 mg/kg i.p.
# Experimental: as §1
# (§4) As already mentioned, the claimed products were assayed also in rat by the paw-pressure and tail-flick tests.
# (§5) Both tests were carried out with the max. doses not impairing the rats normal behaviour. […] The painful stimulus utilized in the paw-pressure test involved the animal consciousness to a much greater extent than the stimulus used in the tail-flick test, in fact, the type and anatomic localization of the latter mainly involved a spinal response.
# (§6) Both tests on rats were carried out with the max. doses not altering the behaviour of the treated animals.
# [6] = rat tail-flick test; assay type: in vivo; conditions: for tail-flick: 20 mg/kg i.p.
# Experimental: as §1, §4, §5, §6
# The test was performed using th
# [7] = test system: presynaptic muscarinic autoreceptor; conditions: cited from earlier work
structure (smiles),measurement,setting,value
"CCC(Sc1ccccc1)C(=O)O[C@H]1C[C@H]2CC[C@@H](C1)N2C (stereo partly drawn) [SM-32, 3α-Tropanyl 2-(phenylthio)-butyrate]",rota-rod performance (number of falls in 30 s),"[1]; 40 mg/kg s.c., 15 min after treatment",1.2 ± 0.6 falls in 30 s
same,rota-rod performance (number of falls in 30 s),"[1]; 40 mg/kg s.c., 30 min after treatment",1.4 ± 0.3 falls in 30 s
same,rota-rod performance (number of falls in 30 s),"[1]; 40 mg/kg s.c., 45 min after treatment",1.2 ± 0.4 falls in 30 s
same,rota-rod performance (number of falls in 30 s),"[1]; 45 mg/kg s.c., 15 min after treatment",2.0 ± 0.3 falls in 30 s
same,rota-rod performance (number of falls in 30 s),"[1]; 45 mg/kg s.c., 30 min after treatment",2.3 ± 0.3 falls in 30 s
same,rota-rod performance (number of falls in 30 s),"[1]; 45 mg/kg s.c., 45 min after treatment",2.0 ± 0.5 falls in 30 s
same,rota-rod performance (number of falls in 30 s),"[1]; 50 mg/kg s.c., 15 min after treatment",1.8 ± 0.4 falls in 30 s
same,rota-rod performance (number of falls in 30 s),"[1]; 50 mg/kg s.c., 30 min after treatment",2.6 ± 0.6 falls in 30 s
same,rota-rod performance (number of falls in 30 s),"[1]; 50 mg/kg s.c., 45 min after treatment",2.6 ± 0.5 falls in 30 s
same,"ANALGESIC ACTIVITY (degree of analgesia, latency on hot plate)",[2]; max. dose not affecting mice behaviour,"++++ (Latency above 35"" ++++-)"
same,analgesic effect (AUC up to 45 min) compared with reference compounds,"[2]; mouse hot plate, FIG. 5, s.c.",more active than the reference compounds
same,"Efficacy as analgesic (Morphine = 100), AUC (Area Under Curve)","[2]; mouse, in vivo",120
same,"Efficacy as analgesic (Morphine = 100), M.E. (Maximum Analgesic Effect)","[2]; mouse, in vivo",107
same,analgesic effect (AUC up to 45 min) compared with morphine,"[2]; mouse, in vivo, ip",only slightly less active than morphine
same,hot-plate latency,"[2]; mouse, 35 mg/kg i.p., 15 min after treatment",35.5 ± 3.0 s
same,hot-plate latency,"[2]; mouse, 35 mg/kg i.p., 30 min after treatment",33.5 ± 2.6 s
same,hot-plate latency,"[2]; mouse, 35 mg/kg i.p., 45 min after treatment",24.4 ± 1.9 s
same,hot-plate latency,"[2]; mouse, 35 mg/kg s.c., 15 min after treatment",38.7 ± 3.5 s
same,hot-plate latency,"[2]; mouse, 35 mg/kg s.c., 30 min after treatment",36.4 ± 3.2 s
same,hot-plate latency,"[2]; mouse, 35 mg/kg s.c., 45 min after treatment",25.7 ± 2.9 s
same,LD50,[3],584 µmol/kg
same,"efficacy in writhing test, in words",[4]; mouse,"less efficacious than ketorolac, are more efficacious than morphine"
same,number of writhes,"[4]; mouse, 35 mg/kg s.c.",5.5 ± 2.1
same,Efficacy as analgesic (Morphine = 100),"[4]; mouse, writhing, 35 mg/kg s.c.",111
same,percent inhibition,"[4]; mouse, writhing, 35 mg/kg s.c.",83.4%
same,ED50,"[4]; sc, mouse writhing",15.9 mg/kg and 35.7 µmol/kg
same,"activity in paw-pressure test, in words",[5],almost equivalent analgesia
same,paw-pressure,[5]; 15 min after treatment,86.2 ± 4.0 g
same,paw-pressure,[5]; 30 min after treatment,92.0 ± 6.1 g
same,paw-pressure,[5]; 45 min after treatment,69.0 ± 4.8 g
same,"activity in tail-flick test, in words",[6],active
same,tail-flick,[6]; 15 min after treatment,3.1 ± 0.5 s
same,tail-flick,[6]; 30 min after treatment,4.7 ± 0.6 s
same,tail-flick,[6]; 45 min after treatment,4.3 ± 0.5 s
CCCCN1CCCCC1C(=O)Nc1c(C)cccc1C (centres unmarked) [bupivacaine],selectivity and efficacy as antagonists of the presynaptic muscarinic autoreceptor,[7],little selective as well as little efficacious
